# Measured values from publication PMC10813753 (Biology, 2024).
# Tests used:
# [1] = tested on: HFF-1 cells (healthy fibroblasts); assay: MTT viability assay HFF-1; type: cell-based, human; conditions: 72 h
# Procedure: (§1) A panel of five tumor cell lines and two normal cell lines was used to preliminarily test the cytotoxicity of compounds 1–4, and the experiments were conducted as previously reported. All human cell lines were acquired from American Type Culture Collection (ATCC): tumor PC-3 and DU145 (prostate), HeLa (cervix), MCF7 (breast) and HT29 (colorectal) and healthy HFF-1 (fibroblast) and RWPE-1 (prostate). The cell catalogue reference and culture media used in the experiments were CRL-1435^TM, RPMI (PC-3), HTB-81™, RPMI (DU145), CCL-2^TM, DMEM (HeLa), HTB-22^TM, DMEM (MCF-7), HTB-38^TM, modified McCoy’s 5a medium, Catalogue No. 30-2007 (HT29), SCRC-1041^TM, DMEM (HFF-1) and CRL-11609^TM, Keratinocyte-SFM (RWPE-1). Culture media were purchased from Merck: RPMI-1640, DMEM + 10% FBS (Fetal Bovine Serum) + […] (penicillin/streptomycin/amphotericin B). Media and supplements for RWPE-1 were from ThermoFisher (17005075, Madrid, Spain). MCF7 cells were additionally supplemented with insulin (0.001 mg/mL in 500 mL media). Cells were kept at 37 °C (5% CO2), and culture media were renewed three times per week. When the cells reached 80–100% confluence, they were trypsinized and centrifuged, and the concentration was adjusted to each experiment. Cells were seeded at a density of ~10,000 cells/well into 24-well plates. The cells were treated with ligands 1–4 or the cytotoxic agents PhenQE8, PhenDC3 or cisplatin at different concentrations (10 nM–100 μM). Compound solutions were freshly prepared using the appropriate culture medium. Triplicate experiments were run. For MTT viability assays, after 72 h incubation, 50 μL of MTT (5 mg/mL) was added, and an additional incubation of 4 h was allowed. The medium in each well was then replaced by DMSO, and the absorbance was measured at 570 nm using an ELISA plate reader. Absorbances were normalized using negative controls (untreated cells, in triplicate, with a maximum of 0.9% DMSO content). Dose–response curves were obtained by plotting the percentage of viable cells versus logarithmic compound concentration. IC50 values were determined using Kaleidagragh^TM (3.52) software by adjusting the data to Equation 1/(1 + 10^(m2*(log(m1) − x))); m1 = 0.000003; m2 = 1.
# [2] = tested on: DU145 cells (prostate tumor); assay: MTT viability assay DU145; type: cell-based, human; conditions: 72 h
# Procedure: as §1
# [3] = tested on: Calf thymus CT DNA; assay: CT DNA viscosity titration; type: binding; conditions: 25 °C, 10 mM sodium phosphate buffer pH 7.2, mean slope
# Procedure: The DNA viscosity titration was conducted as previously reported. For that purpose, Calf thymus CT DNA was used. DNA and compound 1 solutions were freshly prepared in 10 mM NaH2PO4/Na2HPO4 buffer, pH = 7.2. CT DNA solutions (~0.35 mM, nt) were equilibrated for 20 min at 25 °C in a thermostated bath, and 20 flow times were then recorded. Several aliquots (ca. 25–60 μL each) of a solution of ligand 1 (~1.8 mM) were sequentially added. After a 20 min equilibration at 25 °C, flow times were registered. Finally, viscosities (μ) were calculated at each titration point, from the averaged flow times recorded and the viscometer constant. The viscosity graphs were obtained by plotting (μ/μ0)^1/3 versus r, the molar ratio of bound ligand to DNA. The parameter μ0 represents the DNA solution viscosity in the absence of a compound.
# Viscosity titration assays are known to provide useful information, mainly in reversible dsDNA-ligand non-covalent binding modes, and, especially, they are normally used to differentiate between classical DNA intercalants from groove or external binders. The theory of Cohen and Eisenberg establishes that the existence (or not) of changes in the viscosity of a DNA solution upon binding to small-molecule ligands could be correlated to the ligand binding mode. […]
# [4] = tested on: RWPE-1 cells (healthy prostate); assay: MTT viability assay RWPE-1; type: cell-based, human; conditions: 72 h
# Procedure: as §1
# [5] = tested on: telomeric G4 sequence F21T; assay: FRET-based DNA melting assay, telomeric G4 F21T; type: binding, human; conditions: 0.2 μM F21T, renaturing process, K+ buffer
# Procedure: FRET DNA melting assays were conducted following standard reported procedures. Briefly, the employed oligonucleotides F21T (5′-FAM—(GGG TTA)3GGG—TAMRA-3′) and F10T (5′-FAM—TAT AGC TA TA/Sp18/TA GCT ATA—TAMRA-3′) were dissolved in buffer at 0.25 μM concentration and annealed by heating at 90 °C for 5 min, and then immediately cooling to 0 °C, in the case of F21T, or slowly to rt (F10T) during a period of 3 hours. The solutions were allowed to stand at 4 °C at least overnight.
# Tested compounds 1–4 were dissolved in water with up to a maximum 10% DMSO (50 μM stock solution). Each stock solution was then gradually diluted to reach the final concentrations in the assay from 0 to 10 μM and a fixed 0.2 μM concentration of target sequences F21T or F10T. The buffer used for G4 sequence F21T was 10 mM KCl, 90 mM LiCl and 10 mM Li-cacodylate, pH 7.3. The buffer employed for F10T was 100 mM LiCl and 10 mM Li-cacodylate.
# The melting process program consisted of an incubation step at 24 °C for 5 min and then a temperature ramp (1 °C/min rate) with fluorescence recordings at every degree up to 95 °C. Subsequently, the microplate with the samples (50 μL) was incubated for 5 min at 96 °C and then gradually cooled by using a temperature ramp of −1 °C/min, with fluorescence measurements at every degree down to 25 °C. The melting and refolding (or renaturing) curves were registered based on the change in emission of the FAM (6-carboxyfluorescein) fluorophore, excited at 492 nm and emitting at 516 nm. Melting temperature values (Tm) were determined from replicate experiments using normalized curves and considering mid-transition T1/2 temperatures.
# [6] = tested on: MCF-7 cells (breast); assay: MTT viability assay MCF-7; type: cell-based, human; conditions: 72 h
# Procedure: as §1
substance,measurement,setting,value
"2,2′-(1,10-Phenanthroline-2,9-diyl)-bis(methylene)-bis(hydrazine-1-carbothioamide) [compound 1]",IC50,[1],74.4 ± 3.1 µM
same,IC50,[2],62.2 ± 5.9 µM
same,"viscosity slope, (η/ηo)^1/3 versus r",[3],ca. 0.13
same,IC50,[4],90.8 ± 8.8 µM
same,ΔTm of telomeric G4 F21T,[5]; 5 μM compound,~ 7 °C
same,ΔTm of telomeric G4 F21T,[5]; 10 μM compound,~ 12 °C
same,IC50,[6],78.4 ± 11 µM
